Results taken from PubChem BioAssay (NCI).
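Following 48 hours of exposure in 96-well plates, responses at five concentrations were used to interpolate endpoints linearly. At the TGI there is no net growth.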

Assays:
Assay in all cases: NCI anticancer screen, dose series, 48 h
MDA-MB-435 = system: MDA-MB-435
SK-MEL-5 melanoma = system: SK-MEL-5 melanoma
NCI-H226 lung = system: NCI-H226 lung
NCI-H460 lung = system: NCI-H460 lung
A498 renal = system: A498 renal
DU-145 prostate = system: DU-145 prostate
SF-295 CNS = system: SF-295 CNS
M14 melanoma = system: M14 melanoma
MCF7 breast = system: MCF7 breast
HCT-116 colon = system: HCT-116 colon
COLO 205 colon = system: COLO 205 colon
SNB-19 CNS = system: SNB-19 CNS
SNB-75 CNS = system: SNB-75 CNS
KM12 colon = system: KM12 colon
MOLT-4 leukemia = system: MOLT-4 leukemia
U251 CNS = system: U251 CNS
UACC-257 melanoma = system: UACC-257 melanoma
HOP-62 NSCLC = system: HOP-62 NSCLC
K-562 leukemia = system: K-562 leukemia
RPMI-8226 leukemia = system: RPMI-8226 leukemia
EKVX NSCLC = system: EKVX NSCLC
OVCAR-5 ovarian = system: OVCAR-5 ovarian
MDA-N = system: MDA-N
PC-3 prostate = system: PC-3 prostate
UACC-62 melanoma = system: UACC-62 melanoma
UO-31 renal = system: UO-31 renal
HT29 colon = system: HT29 colon
SK-MEL-2 melanoma = system: SK-MEL-2 melanoma
HL-60(TB) leukemia = system: HL-60(TB) leukemia
OVCAR-3 ovarian = system: OVCAR-3 ovarian
SK-OV-3 ovarian = system: SK-OV-3 ovarian
CAKI-1 renal = system: CAKI-1 renal
SF-539 CNS = system: SF-539 CNS
OVCAR-4 ovarian = system: OVCAR-4 ovarian
SF-268 CNS = system: SF-268 CNS
SR leukemia = system: SR leukemia
OVCAR-8 ovarian = system: OVCAR-8 ovarian
BT-549 breast = system: BT-549 breast
HOP-92 NSCLC = system: HOP-92 NSCLC
LOX IMVI melanoma = system: LOX IMVI melanoma
HCT-15 colon = system: HCT-15 colon
HS 578T breast = system: HS 578T breast
ACHN renal = system: ACHN renal
IGROV1 ovarian = system: IGROV1 ovarian
T-47D breast = system: T-47D breast
A549 NSCLC = system: A549 NSCLC
NCI-H522 lung = system: NCI-H522 lung
786-0 renal = system: 786-0 renal
NCI/ADR-RES ovarian = system: NCI/ADR-RES ovarian
MDA-MB-231 breast = system: MDA-MB-231 breast
TK-10 renal = system: TK-10 renal
SW-620 colon = system: SW-620 colon
HCC-2998 colon = system: HCC-2998 colon
SN12C renal = system: SN12C renal
SK-MEL-28 melanoma = system: SK-MEL-28 melanoma
RXF 393 renal = system: RXF 393 renal
NCI-H23 lung = system: NCI-H23 lung
CCRF-CEM leukemia = system: CCRF-CEM leukemia
MALME-3M melanoma = system: MALME-3M melanoma

Measured: TGI

NC(=O)NN=C1C[C@H]2CCCC[C@H]2C1
not listed: RXF 393 renal | NCI-H23 lung | CCRF-CEM leukemia | MALME-3M melanoma
> 100 µM: all other assays above

Cc1cn(CCOCCOC(=O)NC(CCCN=C(N)N)C(=O)O)c(=O)[nH]c1=O (configuration not stated)
not listed: SK-MEL-5 melanoma | CAKI-1 renal | OVCAR-8 ovarian | NCI-H522 lung | MALME-3M melanoma
> 100 µM: all other assays above

c1ccc(N=C2SC(c3ccccc3)(c3ccccc3)c3ccccc32)cc1
not listed: SR leukemia
> 100 µM: all other assays above

CN1C(NN)=NS(=O)(=O)c2ccccc21
not listed: SNB-75 CNS | RPMI-8226 leukemia | MALME-3M melanoma
> 100 µM: all other assays above

Nc1ncnc2oc(-c3cccs3)nc12
not listed: SNB-75 CNS | MOLT-4 leukemia | SK-OV-3 ovarian | CAKI-1 renal | MALME-3M melanoma
> 100 µM: all other assays above
